According to ChEMBL document CHEMBL1201862, “PubChem BioAssay data set” (2004):
Calls of active or inactive are those of the source.

Key:
[1] = target: Peroxisome proliferator-activated receptor gamma/Nuclear receptor coactivator 3 (Homo sapiens, UniProt P37231); assay type: functional;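 note: agonist potency for raising coactivator recruitment to the receptor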
[2] = target: Peroxisome proliferator-activated receptor gamma/Nuclear receptor coactivator 1 (Homo sapiens, UniProt P37231); assay type: functional;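 note: agonist potency as compounds enhance coactivator SRC-1 recruitment to PPARgamma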
Sequence of Peroxisome proliferator-activated receptor gamma/Nuclear receptor coactivator 1 (P37231 whole entry): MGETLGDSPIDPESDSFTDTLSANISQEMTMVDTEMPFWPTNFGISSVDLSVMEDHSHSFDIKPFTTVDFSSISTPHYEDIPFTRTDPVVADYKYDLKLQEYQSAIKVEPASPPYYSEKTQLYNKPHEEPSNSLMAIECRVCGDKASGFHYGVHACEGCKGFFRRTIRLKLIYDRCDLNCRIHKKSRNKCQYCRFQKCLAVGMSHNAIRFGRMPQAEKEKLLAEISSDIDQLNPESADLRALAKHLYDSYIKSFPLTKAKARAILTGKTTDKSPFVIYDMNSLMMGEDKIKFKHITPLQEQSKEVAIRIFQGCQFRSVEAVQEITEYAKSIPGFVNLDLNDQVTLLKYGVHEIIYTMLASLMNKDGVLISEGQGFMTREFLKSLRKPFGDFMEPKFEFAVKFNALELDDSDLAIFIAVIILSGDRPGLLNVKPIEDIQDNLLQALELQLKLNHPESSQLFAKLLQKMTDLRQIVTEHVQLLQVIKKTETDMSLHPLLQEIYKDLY
Sequence of Peroxisome proliferator-activated receptor gamma/Nuclear receptor coactivator 1 (Q15788 whole entry, further chain): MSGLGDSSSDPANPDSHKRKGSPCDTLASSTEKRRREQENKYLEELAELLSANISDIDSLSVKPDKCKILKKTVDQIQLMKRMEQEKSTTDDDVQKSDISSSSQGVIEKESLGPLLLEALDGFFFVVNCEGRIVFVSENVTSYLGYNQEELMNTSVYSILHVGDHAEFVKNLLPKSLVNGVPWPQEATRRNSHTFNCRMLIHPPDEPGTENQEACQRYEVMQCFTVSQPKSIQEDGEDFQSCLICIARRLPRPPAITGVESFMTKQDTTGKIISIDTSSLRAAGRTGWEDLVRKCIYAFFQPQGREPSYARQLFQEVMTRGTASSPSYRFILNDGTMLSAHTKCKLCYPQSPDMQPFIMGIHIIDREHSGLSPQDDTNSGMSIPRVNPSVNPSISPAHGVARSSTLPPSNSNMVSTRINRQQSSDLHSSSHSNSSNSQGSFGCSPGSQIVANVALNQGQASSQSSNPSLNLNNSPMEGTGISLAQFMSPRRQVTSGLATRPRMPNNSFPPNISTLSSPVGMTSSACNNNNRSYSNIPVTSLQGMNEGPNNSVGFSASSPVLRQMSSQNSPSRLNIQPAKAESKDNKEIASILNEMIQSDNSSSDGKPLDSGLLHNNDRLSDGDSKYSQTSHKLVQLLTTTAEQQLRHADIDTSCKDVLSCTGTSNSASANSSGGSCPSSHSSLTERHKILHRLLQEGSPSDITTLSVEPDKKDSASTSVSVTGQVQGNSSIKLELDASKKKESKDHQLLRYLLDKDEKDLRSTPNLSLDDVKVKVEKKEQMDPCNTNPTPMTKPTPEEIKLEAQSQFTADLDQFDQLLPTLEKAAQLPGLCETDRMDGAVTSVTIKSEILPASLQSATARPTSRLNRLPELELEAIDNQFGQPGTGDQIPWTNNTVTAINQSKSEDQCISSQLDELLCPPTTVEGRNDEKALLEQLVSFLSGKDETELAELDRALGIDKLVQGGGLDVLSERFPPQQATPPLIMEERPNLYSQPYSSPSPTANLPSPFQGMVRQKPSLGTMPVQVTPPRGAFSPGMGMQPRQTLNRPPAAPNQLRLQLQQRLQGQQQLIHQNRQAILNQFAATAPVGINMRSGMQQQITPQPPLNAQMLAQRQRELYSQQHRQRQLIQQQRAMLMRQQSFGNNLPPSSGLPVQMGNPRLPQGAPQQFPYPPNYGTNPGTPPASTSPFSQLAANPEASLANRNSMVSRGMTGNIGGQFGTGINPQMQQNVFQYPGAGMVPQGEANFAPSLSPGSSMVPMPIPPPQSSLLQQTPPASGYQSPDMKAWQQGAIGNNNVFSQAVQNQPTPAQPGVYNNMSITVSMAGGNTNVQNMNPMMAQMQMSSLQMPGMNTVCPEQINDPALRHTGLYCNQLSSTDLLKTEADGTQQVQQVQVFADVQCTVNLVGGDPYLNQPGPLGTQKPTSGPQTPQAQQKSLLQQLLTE

[3] = target: Peroxisome proliferator-activated receptor gamma/Nuclear receptor coactivator 2 (Homo sapiens, UniProt P37231); assay type: functional;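 note: agonist potency for raising coactivator recruitment to the receptor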
Sequence of Peroxisome proliferator-activated receptor gamma/Nuclear receptor coactivator 2 (P37231 whole entry): as the sequence (P37231 whole entry) above
Sequence of Peroxisome proliferator-activated receptor gamma/Nuclear receptor coactivator 2 (Q15596 whole entry, further chain): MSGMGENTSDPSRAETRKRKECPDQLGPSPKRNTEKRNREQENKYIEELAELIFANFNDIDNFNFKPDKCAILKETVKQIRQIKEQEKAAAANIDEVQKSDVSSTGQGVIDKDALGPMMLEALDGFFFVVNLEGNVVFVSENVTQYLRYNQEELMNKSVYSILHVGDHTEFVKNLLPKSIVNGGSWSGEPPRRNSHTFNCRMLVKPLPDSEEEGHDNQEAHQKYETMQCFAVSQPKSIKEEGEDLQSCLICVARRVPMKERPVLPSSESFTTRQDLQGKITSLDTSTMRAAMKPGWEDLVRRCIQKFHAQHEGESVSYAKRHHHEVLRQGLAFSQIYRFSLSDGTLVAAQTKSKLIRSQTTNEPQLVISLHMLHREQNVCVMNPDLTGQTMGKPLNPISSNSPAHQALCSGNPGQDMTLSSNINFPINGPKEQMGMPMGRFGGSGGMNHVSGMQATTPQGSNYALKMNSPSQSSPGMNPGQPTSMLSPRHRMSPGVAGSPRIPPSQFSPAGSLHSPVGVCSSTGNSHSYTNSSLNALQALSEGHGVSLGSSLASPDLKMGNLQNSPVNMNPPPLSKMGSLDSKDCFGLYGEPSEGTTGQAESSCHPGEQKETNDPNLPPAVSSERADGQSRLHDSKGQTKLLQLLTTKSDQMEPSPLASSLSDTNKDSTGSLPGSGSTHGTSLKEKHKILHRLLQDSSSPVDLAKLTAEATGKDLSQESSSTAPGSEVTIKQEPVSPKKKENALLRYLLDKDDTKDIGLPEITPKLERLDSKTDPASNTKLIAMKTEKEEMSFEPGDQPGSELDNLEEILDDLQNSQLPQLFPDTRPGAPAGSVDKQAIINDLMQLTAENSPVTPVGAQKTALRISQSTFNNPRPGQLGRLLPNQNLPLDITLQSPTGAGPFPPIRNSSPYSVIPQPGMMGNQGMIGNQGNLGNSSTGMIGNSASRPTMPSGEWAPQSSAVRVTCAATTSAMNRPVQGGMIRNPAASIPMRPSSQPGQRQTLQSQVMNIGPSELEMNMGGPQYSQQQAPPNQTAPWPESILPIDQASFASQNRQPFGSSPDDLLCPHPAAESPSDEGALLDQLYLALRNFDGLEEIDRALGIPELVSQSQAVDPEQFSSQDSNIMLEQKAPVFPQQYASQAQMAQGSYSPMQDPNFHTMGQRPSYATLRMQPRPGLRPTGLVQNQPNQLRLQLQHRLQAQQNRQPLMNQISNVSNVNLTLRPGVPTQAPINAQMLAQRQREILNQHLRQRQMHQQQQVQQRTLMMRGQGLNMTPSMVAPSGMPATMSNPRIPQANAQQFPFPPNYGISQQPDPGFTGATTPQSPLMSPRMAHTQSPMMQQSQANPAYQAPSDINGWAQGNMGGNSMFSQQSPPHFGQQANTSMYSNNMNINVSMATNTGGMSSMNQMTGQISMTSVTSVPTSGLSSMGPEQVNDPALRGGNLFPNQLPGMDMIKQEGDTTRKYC

[4] = CellTiter-Glo luminescent dose response of DLD-1 viability loss (AID 1117352); assay type: functional
[5] = cytotoxicity toward HCT116 cells – cell-based, CellTiter-Glo luminescence, IC50, dose response (AID 1117332); assay type: functional; details: HCT-116
[6] = RKO cell viability reduction, dose response, CellTiter-Glo luminescence (AID 1117322); assay type: functional
[7] = Concentration-dependent survival of SW480 colon cancer line, luminescence detection with CellTiter-Glo, half-maximal inhibitory concentration (AID 1117338); assay type: functional
[8] = cytotoxicity toward Colo320 cells – cell-based, CellTiter-Glo luminescence, IC50, dose response (AID 1117334); assay type: functional; details: COLO 320
[9] = cytotoxicity toward HT-29 cells – cell-based, CellTiter-Glo luminescence, IC50, dose response (AID 1117330); assay type: functional
[10] = target: T1, Mucolipin-3 (Homo sapiens, UniProt Q8TDD5); test: Dose response cell-based high-throughput screening assay for agonists of the transient receptor potential channel ML3 (TRPML3). [Related pubchem assays: 1526, 1424, 1448 ]; assay type: functional
T1 sequence (Q8TDD5 whole entry): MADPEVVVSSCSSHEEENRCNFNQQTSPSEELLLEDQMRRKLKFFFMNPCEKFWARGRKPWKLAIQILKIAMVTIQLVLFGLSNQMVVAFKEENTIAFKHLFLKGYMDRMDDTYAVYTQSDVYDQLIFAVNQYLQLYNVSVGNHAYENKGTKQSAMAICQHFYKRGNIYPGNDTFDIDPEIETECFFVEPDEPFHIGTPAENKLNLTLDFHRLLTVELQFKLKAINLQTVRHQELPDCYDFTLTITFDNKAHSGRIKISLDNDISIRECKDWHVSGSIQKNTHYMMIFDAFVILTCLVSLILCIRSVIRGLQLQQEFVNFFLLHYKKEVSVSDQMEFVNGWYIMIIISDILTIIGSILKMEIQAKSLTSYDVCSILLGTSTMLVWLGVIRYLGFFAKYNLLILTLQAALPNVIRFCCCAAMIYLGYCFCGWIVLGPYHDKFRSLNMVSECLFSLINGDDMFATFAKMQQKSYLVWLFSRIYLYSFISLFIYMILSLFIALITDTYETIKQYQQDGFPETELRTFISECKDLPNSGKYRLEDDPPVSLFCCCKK

[11] = target: Ion channel NompC (Danio rerio, UniProt Q7T1G6); test: Fluorescence counterscreen assay for TRPML3 agonists: dose response cell-based high-throughput screening assay to identify agonists of the transient receptor potential channel N1 (TRPN1). [Related pubchem assays: 1526, 1424, 1448 ]; assay type: functional
[12] = P. falciparum Dd2 growth inhibitors, dose response, SYBR Green, cherry-picked samples (AID 1159567); assay type: functional, cell-based
[13] = cytotoxicity in HPDE-C7 cells, cell-based, fluorescence, HTS (AID 430); assay type: functional; details: Homo sapiens
[14] = cytotoxicity in KRAS-transformed pancreatic duct cells, primary screen, cell-based, fluorescence, HTS (AID 431); assay type: functional; details: Homo sapiens;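 note: cell line used: HPDE-C7K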
[15] = Luminescence Cell-Based Dose Response HTS to Identify Activators of Luciferase Translation or Activity in H4 […] Cells. [Related pubchem assays: 1829 (Project Summary), 1814 (Primary HTS)]; assay type: functional
[16] = inhibitors of intracellular T. cruzi replication, confirmation, NIH3T3 host cells, beta-gal luminescence (AID 2044); assay type: functional, cell-based;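 note: intracellular parasites grown in NIH/3T3 mouse fibroblasts as host cells; luminescent beta-galactosidase reporter signal from transgenic T. cruzi replicating inside host cells; inhibitors lower the luminescence signal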
[17] = cytotoxicity toward NIH3T3 fibroblasts, dose response, counter-screen, cell-based, ATP luminescence, mouse fibroblasts (AID 2010); assay type: functional; details: NIH3T3;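 note: cells exposed to compound for about 90 hours before reading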
[18] = Luminescence Cell-Based Dose Confirmation HTS to Identify Activators of 5'UTR Stem-Loop Driven Alpha-Synuclein mRNA Translation in H4 Neuroglioblastoma Cells. [Related pubchem assays: 1829 (Project Summary), 1814 (Primary HTS)]; assay type: functional
[19] = tested on: H4; test: Luminescence Cell-Based Dose Response HTS to Identify Activators of 5'UTR Stem-Loop Driven Prion Protein mRNA Translation in H4 Neuroglioblastoma Cells. [Related pubchem assays: 1829 (Project Summary), 1814 (Primary HTS)]; assay type: functional; details: Homo sapiens
[20] = cells
[21] = Luminescence Cell-Based Dose Response to Identify Activators of 5'UTR Stem-Loop Driven Prion Protein mRNA Translation in H4-C Neuroglioblastoma Cells. [Related pubchem assays: 1829 (Project Summary), 1814 (Primary HTS)]; assay type: functional
[22] = Luminescence Cell-Based Dose Confirmation to Identify Activators of 5'UTR Stem-Loop Driven Alpha-Synuclein mRNA Translation in H4 Neuroglioblastoma Cells. [Related pubchem assays: 1829 (Project Summary), 1814 (Primary HTS)]; assay type: functional
[23] = Luminescence Cell-Based Dose Response to Identify Activators of Luciferase Translation or Activity in H4-C Neuroglioblastoma Cells. [Related pubchem assays: 1829 (Project Summary), 1814 (Primary HTS)]; assay type: functional

## CSCCNC(C)=O
[1]
  EC50: > 79.4 µM (not active)
[2]
  EC50: > 79.4 µM (not active)
[3]
  EC50: > 79.4 µM (not active)

## COc1ccc(C(=O)c2ccccc2O)c(O)c1 [DIOXYBENZONE]
[4]
  IC50: > 20 µM (inactive)
[5]
  IC50: > 20 µM (inactive)
[6]
  IC50: > 20 µM (inactive)
[7]
  IC50: > 20 µM (inactive)
[8]
  IC50: > 20 µM (inactive)
[9]
  IC50: > 20 µM (inactive)

## CCCCC(CC)Cn1c2nc3ccccc3nc2c2c(=N)oc(C)nc21 (stereo not given)
[1]
  EC50: 84.3 µM (not active)
[2]
  EC50: > 79.4 µM (not active)
[3]
  EC50: > 79.4 µM (not active)

## O=c1[nH]n(-c2ccccc2)c(=O)c2ccccc12
[1]
  EC50: > 79.4 µM (not active)
[2]
  EC50: > 79.4 µM (not active)
[3]
  EC50: > 79.4 µM (not active)

## Cc1ccc(S(=O)(=O)N2CCN(C)CC2)c(C)c1N(C)S(=O)(=O)c1ccc(Cl)cc1
[10]
  EC50: 3.34 µM (active)
[11]
  EC50: > 29.9 µM (not active)

## COc1ccc(CN2CC3(CCN(C(=O)c4ccccc4)CC3)c3c([nH]c4cc(OC)ccc34)[C@@H]2CO)cc1
[12]
  AC50: 3 µM (active)

## COc1ccc(N(Cc2cc3cc(OC)ccc3nc2O)S(C)(=O)=O)cc1
[13]
  EC50: > 20 µM (not active)
[14]
  EC50: > 20 µM (not active)

## CN(C)CCN(C(=O)c1ccc2c(c1)OCCO2)c1nc2ccc(Cl)cc2s1
[15]
  EC50: 15.6 µM (active)
[16]
  EC50: < 0.1 µM (active)
[17]
  EC50: > 60 µM (not active)
[18]
  EC50: > 120 µM (not active)
[19]
  EC50: > 120 µM (not active)
[20]
  EC50: 0.088 µM (active)

## CCOC(=O)C1=C(NC(=S)NC(=O)c2ccccc2)c2ccccc2CC1(C)C
[10]
  EC50: 5.5 µM (active)
[11]
  EC50: > 29.9 µM (not active)

## Cc1ccc(-c2csc(NC(=O)C3=COCCO3)n2)cc1C
[21]
  EC50: 2.75 µM (active)
[15]
  EC50: < 0.1 µM (inconclusive)
[16]
  EC50: 0.846 µM (active)
[22]
  EC50: 0.353 µM (active)
[23]
  EC50: 0.301 µM (active)
[17]
  EC50: > 60 µM (not active)

## COc1ccc2c3c(n(C)c2c1)[C@H](CO)N(Cc1ccccc1F)CC31CCN(CC2CC2)CC1
[12]
  AC50: 3.46 µM (active)

## CC(=N)/C(C#N)=C(/O)CSc1nc2cc(C)ccc2[nH]1
[21]
  EC50: 0.321 µM (active)
[15]
  EC50: < 0.1 µM (active)
[22]
  EC50: 0.424 µM (active)
[23]
  EC50: 0.296 µM (active)
[18]
  EC50: 1.68 µM (active)
